Laboratory results taken from publication PMC9506254, “Self-Emulsifying Formulations to Increase the Oral Bioavailability of 4,6,4′-Trimethylangelicin as a Possible Treatment for Cystic Fibrosis” (Pharmaceutics, 2022).

Assays:
[1] = In vitro dissolution test in simplified FaSSIF and FeSSIF; assay type: physicochemical; conditions: FeSSIF compared with FaSSIF
Protocol: In vitro drug dissolution tests were performed using the USP 24 method with a dissolution apparatus 2 (Sotax AT7 Smart, Sotax, Allschwil, Switzerland) at 100 rpm. Dissolution tests were carried out under sink conditions at 37 ± 0.5 °C in 900 mL of two simplified simulated intestinal fluids to simulate the fed and fasted states. The composition of simplified FaSSIF (fasted-state simulated intestinal fluid) and FeSSIF (fed-state simulated intestinal fluid) buffers were those reported by Zoeller and Klein [24]. Samples (1 mL) were withdrawn at 5, 10, 15, 30, 45, 60, 90, 120, 240, and 300 min and the volume removed was replaced with an equal volume of temperature-equilibrated media. The samples were filtered through a 0.45 µm acetate cellulose filter and the TMA concentration was determined by HPLC-UV using the method reported in Section 2.3. The results were averaged from three replicated experiments.

[2] = Lipophilicity (Log p) and BCS classification from the literature; assay type: physicochemical; conditions: inferred from Log p and low water solubility
[3] = Metabolic stability with human liver microsomes; assay type: in vitro ADME; conditions: 1 µM, 37 °C, NADPH, pH 7.4
Protocol: The metabolic stability of TMA was assessed by incubating the compound with human liver microsomes (HLMs) (BD Bioscience, Franklin Lakes, NJ, USA), as already described. Briefly, TMA was dissolved in DMSO (1 µM) and incubated at 37 °C for 10 and 30 min in 0.1 M phosphate buffer containing 200 µg of microsomes and 10 mM NADPH, pH 7.4. At the end of incubation, the reaction was stopped by addition of 200 µL cold acetonitrile. After centrifugation for 10 min at 12,000× g (Hettich Mikro 120 benchtop centrifuge), supernatants were collected and analyzed by means of ultra-high pressure liquid chromatography coupled to high-resolution mass spectrometry (UHPLC-HRMS) to assess metabolic stability of TMAas described in Section 2.8.1. […]
The UHPLC-HRMS system was equipped with Agilent 1260 Infinity II LC System coupled to an Agilent 6545 LC/Q-TOF mass analyzer (Agilent Technologies, Palo Alto, Santa Clara, CA, USA). […] The mobile phase gradient profile was as follows (t in min): t0–3 2% B; t3–18 2–100% B, t18–20 100% B; t20–30 0% B. The MS conditions were: electrospray (ESI) ionization in positive mode, gas temperature 325 °C, drying gas 10 L/min, nebulizer 20 psi, sheath gas temperature 400 °C, sheath gas flow 12 L/min, VCap 4000 V, nozzle voltage 0 V, fragmentor 180 V. Centroid full scan mass spectra were recorded in the range 100–1000 m/z with a scan rate of 1 spectrum/s. […]

[4] = Solubility of TMA in oils, surfactants, co-surfactants/co-solvents; assay type: physicochemical; conditions: 25 °C, 24 h, n = 3
Protocol: The solubility of TMA in different oils, surfactants, co-surfactants/co-solvent was determined by pouring an excess of TMA in a 2 mL glass vial containing 1 g of each excipient. The mixtures were vortexed and kept at 25 °C for 24 h, and then the samples were centrifuged at 15,000× g rpm for 10 min to remove the undissolved drug. The supernatant was diluted with a suitable solvent and the TMA was quantified by HPLC (Agilent 1220 Infinity LC, Agilent Technologies, Santa Clara, CA, USA) equipped with a UV-vis detector and a Zorbax 300SB C 18 column (4.6 × 250 mm, 5 µm, Agilent Technologies, Santa Clara, CA, USA). For the analysis of the organic solutions of TMA, a volume of 20 µL was injected into the column and a mixture of methanol and water (95:5) was used as mobile phase with a flow rate of 0.8 mL/min. Instead, for the analysis of aqueous solutions, 100 µL of sample was injected and a mixture 75:25 of methanol and water was used as mobile phase at a flow rate of 0.9 mL/min. The UV was set at a wavelength of 251 nm.

[5] = In vivo pharmacokinetics after oral gavage; conditions: mice
Protocol: All the experimental procedures involving animals were conducted in compliance with national and international guidelines for the handling and use of experimental animals (Authorization no. 853-2018-PR, 11 November 2018) and appropriately designed to minimize their pain or discomfort. All the animals were maintained in IVC cages under controlled conditions, with a 12/12 h dark/light cycle and free access to food and drink. For the pharmacokinetic analysis, a 20 mg/kg dose of TMA, suspended in water or dissolved in formulations A.1 and B.1, was administered to mice by oral gavage, after an overnight fast. Plasma samples (n = 3 per time point) were collected from the submandibular plexus before and 0.25, 0.5, 1, 2, 3, 4, 6, 24, and 48 h after the administration of TMA. The main PK parameters were calculated by means of the Microsoft Excel plug-in PK Solver, using standard formulae [25]. The data were analyzed using the software GraphPad Prism 8.0 (GraphPad Software Inc., San Diego, CA, USA) ver. 8.0, and, if not otherwise stated, are expressed as mean ± SD. Statistical analysis was performed using Student’s t test or one-way ANOVA, when appropriate, and p < 0.05 was considered statistically significant.
TMA was extracted from the samples by treating 100 µL of plasma with 300 µL of cold acetonitrile spiked with 80 nM of IS, and then the samples were centrifuged for 10 min at 12,000× g (Hettich Mikro 120 benchtop centrifuge) and 25 °C. 10 μL of the supernatant were injected into the UHPLC system. The quantification of TMA was carried out by external calibration of the normalized signals using a seven-point calibration curve obtained by spiking blank plasma with TMA in the range 20–3000 nM. […] The metabolites related to TMA were quantified in plasma by comparing the normalized area with the TMA calibration curve as there were no suitable analytical standards available. The data obtained should be considered semiquantitative, as it is not possible to ensure the same molar response factor for TMA and its metabolites under electrospray conditions.

[6] = 20 mg/kg TMA, oral gavage, overnight fast, plasma TMA, mean ± S.D.

For `Cc1cc(=O)oc2c1cc(C)c1occ(C)c12` [TMA, 4,6,4′-trimethylangelicin], the “Amount of free TMA dissolved” value [1] was “increases significantly”, the “BCS classification system class” value [2] was “class II” and the “Initial amount of TMA metabolized by HLM enzymes” value ([3]; 10 min) was 67 ± 15%. The “Degradation of TMA by HLM enzymes” value ([3]; 30 min) was 90 ± 15%, the “TMA Solubility” value ([4]; in Capryol PGMC (co-surfactant)) was 7346 ± 380 µg/mL and the “TMA Solubility” value ([4]; in Cremophor EL (surfactant)) was 9091 ± 217 µg/mL. The “TMA Solubility” value ([4]; in Ethanol (co-solvent)) was 2509 ± 52 µg/mL, the “TMA Solubility” value ([4]; in Labrafac Lipophile WL1349 (oil)) was 4639 ± 170 µg/mL and the “TMA Solubility” value ([4]; in Lauroglycol FCC (co-surfactant)) was 6484 ± 92 µg/mL. The “TMA Solubility” value ([4]; in Maisine CC (oil)) was 6340 ± 377 µg/mL, the “TMA Solubility” value ([4]; in Transcutol HP (co-solvent)) was 9568 ± 131 µg/mL and the “TMA Solubility” value ([4]; in Tween 80 (surfactant)) was 7040 ± 120 µg/mL. The CL/F ([5]; 20 mg/kg TMA, oral gavage, overnight fast, mean ± S.D.) was 0.073 ± 0.029 mL/h/g, the AUC0-inf [5, 6] was 0.29783 ± 0.11913 µM·h and the Cmax [5, 6] was 186 ± 21.1 nM. It also gave a Tmax [5, 6] of 0.38 ± 0.18 h and a t1/2 [5, 6] of 1.71 ± 0.16 h.

In the case of TMA-D, the “TMA-related metabolites in mouse plasma” value ([5]; 20 mg/kg TMA oral, semiquantitative, TMA calibration curve, LOD about 10 nM) is reported as “main metabolite”.
